Data on one compound can be found in ChEMBL document CHEMBL5729081, “Morpholine derivative” (2022).

As a reminder, the IC50 is the concentration that gives 50% inhibition.

This series concerns the target hERG (KCNH2) potassium channel (Homo sapiens, UniProt Q12809). Briefly: For electrophysiological measurements cells were seeded onto 35 mm sterile culture dishes containing 2 ml culture medium without Hygromycin B. Cells were cultivated at a density that enabled single cells (without visible connections to neighbouring cells) to be measured. […] The cells were continuously maintained in and passaged in sterile culture flasks containing nutrient mixture F-12 (DMEM/F-12 with L-Glutamine) supplemented with 10% foetal bovine serum and 10% penicillin/streptomycin solution. […] The 35 mm culture dishes upon which cells were seeded at a density allowing single cells to be recorded were placed on the dish holder of the microscope and continuously perfused (at approximately 1 ml/min) with the bath solution (sodium chloride 150 mM, potassium chloride 4 mM, calcium chloride 1.2 mM, magnesium chloride 1 mM, HEPES 10 mM, pH (NaOH) 7.4) at near physiological temperature (36±1° C.). After formation of a Gigaohm seal between the patch electrodes and individual hERG stably transfected CHO cells (pipette resistance range: 2.0 MΩ-7.0 MΩ; seal resistance range: >1 GΩ) the cell membrane across the pipette tip was ruptured to assure electrical access to the cell interior (whole-cell patch-configuration). In case the quality of the seal was poor, the process of seal formation was repeated with a different cell and a new pipette. […] […]. The following applies: CHO cells stably expressing the hERG channel, pH 7.4. The format is cell-based. Background: The hERG channel carries a current that helps repolarise heart muscle cells.

hERG (KCNH2) potassium channel, sequence (Q12809 whole entry, the tested form may be a part): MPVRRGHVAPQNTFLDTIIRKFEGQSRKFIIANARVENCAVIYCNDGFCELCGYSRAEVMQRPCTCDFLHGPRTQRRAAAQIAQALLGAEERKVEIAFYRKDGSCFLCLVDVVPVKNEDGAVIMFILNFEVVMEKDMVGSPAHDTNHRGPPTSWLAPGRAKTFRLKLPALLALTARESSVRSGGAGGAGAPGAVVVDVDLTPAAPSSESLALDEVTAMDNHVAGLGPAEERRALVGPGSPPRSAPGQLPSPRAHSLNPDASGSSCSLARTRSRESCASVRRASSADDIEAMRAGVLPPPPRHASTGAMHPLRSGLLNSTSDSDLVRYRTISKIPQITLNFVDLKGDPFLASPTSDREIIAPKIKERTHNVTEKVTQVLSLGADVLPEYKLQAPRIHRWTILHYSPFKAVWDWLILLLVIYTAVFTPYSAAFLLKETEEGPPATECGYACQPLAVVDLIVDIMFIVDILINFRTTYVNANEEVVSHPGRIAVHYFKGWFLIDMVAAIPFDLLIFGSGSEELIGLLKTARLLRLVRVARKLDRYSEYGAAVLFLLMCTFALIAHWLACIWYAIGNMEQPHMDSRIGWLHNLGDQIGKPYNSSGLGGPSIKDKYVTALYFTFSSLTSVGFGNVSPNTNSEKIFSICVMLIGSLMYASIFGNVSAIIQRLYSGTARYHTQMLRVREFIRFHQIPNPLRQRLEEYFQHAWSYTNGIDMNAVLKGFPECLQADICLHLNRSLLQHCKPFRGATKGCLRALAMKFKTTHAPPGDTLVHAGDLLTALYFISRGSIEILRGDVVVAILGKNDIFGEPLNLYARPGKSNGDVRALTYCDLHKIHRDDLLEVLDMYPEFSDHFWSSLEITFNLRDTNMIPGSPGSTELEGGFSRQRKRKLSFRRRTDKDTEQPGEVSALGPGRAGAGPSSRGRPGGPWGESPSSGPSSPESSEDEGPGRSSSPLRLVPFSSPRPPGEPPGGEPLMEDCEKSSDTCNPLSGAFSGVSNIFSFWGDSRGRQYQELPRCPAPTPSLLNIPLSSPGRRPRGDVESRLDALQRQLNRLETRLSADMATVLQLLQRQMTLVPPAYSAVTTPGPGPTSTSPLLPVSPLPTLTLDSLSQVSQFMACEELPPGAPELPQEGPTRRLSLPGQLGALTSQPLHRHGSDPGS

As to `O=C(Nc1ccc([C@H]2CNCCO2)cc1)c1ccc(Cl)nc1`, the IC50 came out at 14.3 µM.
